Data: paper PMC10031741, “A D-cysteine desulfhydrase, SlDCD2, participates in tomato fruit ripening by modulating ROS homoeostasis and ethylene biosynthesis” (Horticulture Research, 2023)

Biological target: T1, SlDCD2 (Solanum lycopersicum, UniProt A0A3Q7EA38)
T1 construct: gene LOC101256906; tag removal not mentioned
T1 sequence (A0A3Q7EA38 1-442): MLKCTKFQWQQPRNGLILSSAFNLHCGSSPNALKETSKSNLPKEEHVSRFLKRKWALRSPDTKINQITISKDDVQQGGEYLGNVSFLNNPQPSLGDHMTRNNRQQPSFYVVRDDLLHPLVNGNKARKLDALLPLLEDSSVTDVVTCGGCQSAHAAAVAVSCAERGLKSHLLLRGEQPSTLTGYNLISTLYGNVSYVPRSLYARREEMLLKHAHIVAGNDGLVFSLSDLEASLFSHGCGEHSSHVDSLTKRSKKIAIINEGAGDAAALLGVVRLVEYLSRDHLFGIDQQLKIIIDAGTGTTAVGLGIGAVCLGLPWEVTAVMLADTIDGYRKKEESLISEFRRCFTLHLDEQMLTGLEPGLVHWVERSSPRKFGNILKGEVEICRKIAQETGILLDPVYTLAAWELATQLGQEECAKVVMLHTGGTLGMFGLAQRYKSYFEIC
Assay: H2S production, methylene blue at […] nm
Type: biochemical
Conditions: H2S release; assay as in cited reference

**Q.** With `N[C@H](CS)C(=O)O` [D-cysteine] as the compound, how does the “H2S production, methylene blue at 670 nm” value read?
**A.** The value was “Using D-cysteine as the substrate, the enzymatic activity of SlDCD2 was evaluated”.
